# Reference: publication PMC10436550, “Subacute toxicity evaluations of LPM3480392 in rats, a full µ-opioid receptor biased agonist” (Frontiers in Pharmacology, 2023)
# Tested on: Sprague Dawley (SD) rats
# Experiment: Organ weight and ratios, 4-week subacute toxicity study
# Assay type: in vivo, rat
# Conditions: male rats
# Experimental: Complete gross necropsies were conducted on all surviving animals at the end of treatment (the day after the last dosing) and recovery periods. The following selected organs were weighed and evaluated in terms of organ/body or organ/brain weight ratios: brain, kidneys, adrenals, testes, ovaries, uterus, epididymides, thymus, spleen, heart and liver. Paired organs were weighed together. Organ-to-body weight ratio = Organ weight(g)/Body weight(g) × 100%, and Organ-to-brain weight ratio = Organ weight(g)/Brain weight(g) × 100%.
# [1] = 0.6 mg/kg/day, End of recovery phase
# [2] = 1.2 mg/kg/day, End of dosing phase
# [3] = 1.2 mg/kg/day, End of recovery phase
# [4] = 2.4 mg/kg/day, End of dosing phase
# [5] = 2.4 mg/kg/day, End of recovery phase
smiles,measurement,setting,value
Fc1ccc([C@]2(CCNCc3cccc(Cl)c3)CCO[C@]3(CCOC3)C2)nc1 [LPM3480392],"Organ weight, Heart",[1],1.431 ± 0.112 g
same,"Organ weight, Liver",[1],9.943 ± 1.685 g
same,"Organ weight, Spleen",[1],0.774 ± 0.108 g
same,"Organ weight, Thymus",[1],0.470 ± 0.076 g
same,"Organ-to-body weight ratio, Adrenal gland",[1],0.013 ± 0.002%
same,"Organ-to-body weight ratio, Brain",[1],0.534 ± 0.040%
same,"Organ-to-body weight ratio, Epididymis",[1],0.338 ± 0.036%
same,"Organ-to-body weight ratio, Heart",[1],0.337 ± 0.020%
same,"Organ-to-body weight ratio, Liver",[1],2.327 ± 0.250%
same,"Organ-to-body weight ratio, Spleen",[1],0.182 ± 0.018%
same,"Organ-to-body weight ratio, Thymus",[1],0.110 ± 0.016%
same,"Organ-to-brain weight ratio, Adrenal gland",[1],2.52 ± 0.37%
same,"Organ-to-brain weight ratio, Epididymis",[1],63.42 ± 6.91%
same,"Organ-to-brain weight ratio, Heart",[1],63.29 ± 4.73%
same,"Organ-to-brain weight ratio, Liver",[1],441.01 ± 85.94%
same,"Organ-to-brain weight ratio, Spleen",[1],34.27 ± 5.33%
same,"Organ-to-brain weight ratio, Thymus",[1],20.83 ± 3.66%
same,Terminal BW,[1],425.2 ± 26.4 g
same,"Organ weight, Adrenal gland",[2],0.052 ± 0.007 g
same,"Organ weight, Brain",[2],2.015 ± 0.137 g
same,"Organ weight, Epididymis",[2],1.020 ± 0.040 g
same,"Organ weight, Heart",[2],1.199 ± 0.140 g
same,"Organ weight, Liver",[2],7.643 ± 0.801 g
same,"Organ weight, Spleen",[2],0.703 ± 0.103 g
same,"Organ weight, Thymus",[2],0.425 ± 0.115 g
same,"Organ-to-body weight ratio, Adrenal gland",[2],0.017 ± 0.002%
same,"Organ-to-body weight ratio, Brain",[2],0.655 ± 0.040%
same,"Organ-to-body weight ratio, Epididymis",[2],0.332 ± 0.030%
same,"Organ-to-body weight ratio, Heart",[2],0.388 ± 0.025 %
same,"Organ-to-body weight ratio, Liver",[2],2.473 ± 0.100%
same,"Organ-to-body weight ratio, Spleen",[2],0.227 ± 0.026%
same,"Organ-to-body weight ratio, Thymus",[2],0.136 ± 0.028%
same,"Organ-to-brain weight ratio, Adrenal gland",[2],2.59 ± 0.37%
same,"Organ-to-brain weight ratio, Epididymis",[2],50.88 ± 4.79%
same,"Organ-to-brain weight ratio, Heart",[2],59.48 ± 5.54%
same,"Organ-to-brain weight ratio, Liver",[2],378.95 ± 25.83%
same,"Organ-to-brain weight ratio, Spleen",[2],35.01 ± 5.62%
same,"Organ-to-brain weight ratio, Thymus",[2],20.87 ± 4.42%
same,Terminal BW,[2],308.5 ± 22.5 g
same,"Organ weight, Adrenal gland",[3],0.060 ± 0.010 g
same,"Organ weight, Brain",[3],2.177 ± 0.033 g
same,"Organ weight, Epididymis",[3],1.351 ± 0.094 g
same,"Organ weight, Heart",[3],1.483 ± 0.081 g
same,"Organ weight, Liver",[3],10.423 ± 1.077 g
same,"Organ weight, Spleen",[3],0.814 ± 0.089 g
same,"Organ weight, Thymus",[3],0.393 ± 0.042 g
same,"Organ-to-body weight ratio, Adrenal gland",[3],0.014 ± 0.003%
same,"Organ-to-body weight ratio, Brain",[3],0.514 ± 0.031%
same,"Organ-to-body weight ratio, Epididymis",[3],0.318 ± 0.010%
same,"Organ-to-body weight ratio, Heart",[3],0.349 ± 0.017%
same,"Organ-to-body weight ratio, Liver",[3],2.451 ± 0.149%
same,"Organ-to-body weight ratio, Spleen",[3],0.192 ± 0.022%
same,"Organ-to-body weight ratio, Thymus",[3],0.093 ± 0.013%
same,"Organ-to-brain weight ratio, Adrenal gland",[3],2.74 ± 0.50%
same,"Organ-to-brain weight ratio, Epididymis",[3],62.05 ± 4.34%
same,"Organ-to-brain weight ratio, Heart",[3],68.08 ± 3.40%
same,"Organ-to-brain weight ratio, Liver",[3],478.76 ± 49.84%
same,"Organ-to-brain weight ratio, Spleen",[3],37.41 ± 4.09%
same,"Organ-to-brain weight ratio, Thymus",[3],18.03 ± 1.83%
same,Terminal BW,[3],424.6 ± 23.0 g
same,"Organ weight, Adrenal gland",[4],0.052 ± 0.004 g
same,"Organ weight, Brain",[4],2.031 ± 0.066 g
same,"Organ weight, Epididymis",[4],0.904 ± 0.104 g
same,"Organ weight, Heart",[4],1.172 ± 0.071 g
same,"Organ weight, Liver",[4],7.348 ± 0.497 g
same,"Organ weight, Spleen",[4],0.686 ± 0.129 g
same,"Organ weight, Thymus",[4],0.394 ± 0.075 g
same,"Organ-to-body weight ratio, Adrenal gland",[4],0.018 ± 0.002%
same,"Organ-to-body weight ratio, Brain",[4],0.689 ± 0.061%
same,"Organ-to-body weight ratio, Epididymis",[4],0.305 ± 0.028%
same,"Organ-to-body weight ratio, Heart",[4],0.397 ± 0.037 %
same,"Organ-to-body weight ratio, Liver",[4],2.487 ± 0.195%
same,"Organ-to-body weight ratio, Spleen",[4],0.231 ± 0.033%
same,"Organ-to-body weight ratio, Thymus",[4],0.132 ± 0.019%
same,"Organ-to-brain weight ratio, Adrenal gland",[4],2.59 ± 0.24%
same,"Organ-to-brain weight ratio, Epididymis",[4],44.58 ± 5.64 %
same,"Organ-to-brain weight ratio, Heart",[4],57.77 ± 3.83%
same,"Organ-to-brain weight ratio, Liver",[4],361.66 ± 16.84 %
same,"Organ-to-brain weight ratio, Spleen",[4],33.71 ± 5.76%
same,"Organ-to-brain weight ratio, Thymus",[4],19.36 ± 3.42%
same,Terminal BW,[4],296.6 ± 24.2 g
same,"Organ weight, Adrenal gland",[5],0.055 ± 0.009 g
same,"Organ weight, Brain",[5],2.185 ± 0.147 g
same,"Organ weight, Epididymis",[5],1.239 ± 0.114 g
same,"Organ weight, Heart",[5],1.360 ± 0.262 g
same,"Organ weight, Liver",[5],9.451 ± 1.196 g
same,"Organ weight, Spleen",[5],0.775 ± 0.172 g
same,"Organ weight, Thymus",[5],0.386 ± 0.038 g
same,"Organ-to-body weight ratio, Adrenal gland",[5],0.014 ± 0.002%
same,"Organ-to-body weight ratio, Brain",[5],0.559 ± 0.076%
same,"Organ-to-body weight ratio, Epididymis",[5],0.315 ± 0.026%
same,"Organ-to-body weight ratio, Heart",[5],0.342 ± 0.024%
same,"Organ-to-body weight ratio, Liver",[5],2.391 ± 0.064%
same,"Organ-to-body weight ratio, Spleen",[5],0.194 ± 0.023%
same,"Organ-to-body weight ratio, Thymus",[5],0.099 ± 0.013%
same,"Organ-to-brain weight ratio, Adrenal gland",[5],2.55 ± 0.51%
same,"Organ-to-brain weight ratio, Epididymis",[5],56.82 ± 5.54%
same,"Organ-to-brain weight ratio, Heart",[5],62.11 ± 10.37%
same,"Organ-to-brain weight ratio, Liver",[5],432.91 ± 49.50%
same,"Organ-to-brain weight ratio, Spleen",[5],35.31 ± 6.72%
same,"Organ-to-brain weight ratio, Thymus",[5],17.77 ± 2.29%
same,Terminal BW,[5],395.7 ± 53.7 g
